Experimental data as given in US20230391714A1, “INHIBITORS OF THE INTERACTION BETWEEN TRIP8B AND HCN CHANNELS AND USES THEREOF FOR TREATING NEUROLOGICAL DISEASES AND DISORDERS” (Northwestern University, priority 2022, published 2023).
Where two headings read alike, the source gives them in different places.

Assays:
[1] = Thermodynamic solubility in PBS; assay type: physicochemical; details: PBS at pH 7.4, room temperature, stirring for 16 hours
Description: (§1) Solubility and Mouse Microsomal Stability. […] In order to improve the aqueous solubility to support additional biochemical assays we made and characterized several salt forms. The formic acid (FA) salt was recovered after reverse-phase preparative HPLC while using formic acid as a modifier. […] On stirring the free amine in 4M HCl in dioxane, the compound was converted to the HCl salt as a white solid (Scheme 1). […] As a result, the HCl-salt of NUCC-0200590 was used for biophysical assays. The inhibitor was also screened for in vitro stability towards mouse liver microsomes to evaluate its potential metabolism and suitability for future in vivo experiments. The microsomal stability was measured after a 60-minute incubation at 37° C. with mouse liver microsomes. The compound was almost completely consumed by mouse liver microsomes after a 60-minute incubation as only 3.7% of the parent compound remained.

TRIP8b and HCN1 = TRIP8b and HCN1 (Homo sapiens (Human), UniProt Q8IYB4); test: NanoBiT live cell protein-protein interaction assay; assay type: cell-based; details: HEK293T cells, 30 min incubation
Method: NanoBiT live cell protein-protein interaction assay. HEK293T cells (obtained freshly from ATCC) were plated in DMEM (Thermo Fisher, #11965-092) with 10% FBS (Thermo Fisher, #16000-044) and Pen/Strep (Thermo Fisher #15140-122) at 1 million cells per well in 6-well tissue culture treated plates. The next day, cells were co-transfected using Lipofectamine 3000 with plasmids encoding the small Nanoluciferase fragment (SmBiT) fused to the N-terminus of full-length HCN1 (SmBiT-HCN1), and the large Nanoluciferase fragment (LgBiT) fused to the N-terminus of TRIP8b(1a-4) (LgBiT-TRIP8b). The plasmids were constructed by cloning into backbone vectors from the Promega NanoBiT MCS cloning kit #N2014. As a control for specific inhibition, other cells were co-transfected with SmBiT-PRKACA and LgBiT-PRKAR2A positive control plasmids from the kit. 24 hours post-transfection, the cells were trypsinized with TrypLE (Thermo Fisher, #12604-013), washed and suspended in phenol red-free Opti-MEM I (Thermo Fisher, #11058-021), and 25,000 cells per well were plated in white 384-well tissue culture-treated plates (Greiner #781080). […] Luminescence was generated by adding Nano-Glo live cell substrate (Promega, #N2011) and incubating for 30 minutes at 37° C. prior to detecting on a luminescent reader (Biotek Neo2).

HEK293T cells = test: Cell viability assay (alamar Blue); assay type: cell-based; details: 0-50 μM, 24 hours
Method: Cell Viability Assays. HEK293T Cells (ATCC, Manassas, Virginia) were maintained as previously described (Lyman et al., 2017b). These cells were plated at 30-50% confluence and incubated for 24 hours with the concentration of NUCC-0200590 specified in the main text. The cells were then incubated with alamar Blue assay reagent per the Manufacturer's instructions (ThermoFisher, Rockford, IL) prior to reading the plates on a plate reader.

TRIP8b-HCN1c40 = TRIP8b-HCN1c40 (Homo sapiens (Human), UniProt Q8IYB4); test: TRIP8b-HCN1c40 AlphaScreen assay; assay type: binding
Method: AlphaScreen Assay. 20 nM ofGST-tagged HCNlc40 protein (corresponding to the C terminal 40 amino acids of HCN1) was incubated with 200 nM of His-tagged TRIP8b(241-602) and varying concentrations of the test compound as described in our prior report (Han et al., 2015). After a 3 h incubation, anti-GST AlphaScreen acceptor beads were added for 1.5 h followed by AlphaScreen nickel chelate donor beads for 1.5 h. AlphaScreen signal was quantified using a PerkinElmer (Waltham, MA) EnSpire multimode plate reader.

[2] = test system: HCN channels in CA1 pyramidal neurons; test: Slice electrophysiology in CA1 pyramidal neurons; assay type: cell-based, mice; details: 15 μM
Method: Slice Electrophysiology. Whole cell recordings from CA1 pyramidal neurons were performed using an electrophysiology rig described previously (Zhou et al., 2013; 2015). 300 micron sagittal sections were made from male and female mice with 5 μM CGP52432, 2 μM SR-95531, and 10 μM MK-801 to block GABAB, GABAA, and NMDAR. ACSF was composed of 125 mM NaCl, 2.5 mM KCl, 25 mM NaHCO3, 1.25 mM Na2PO4, 1 mM MgCl2, 2 mM CaCl2), and 25 mM glucose while the internal solution was 115 mM K-gluconate, 20 mM KCl, 10 mM Na2Phosphocreatinine, 2 mM MgATP, and 0.3 mM NaGTP. NUCC-0200590 was incubated in the slice chamber in a subset of experiments as described in the text. Current clamp recordings were performed at a holding potential of −70 mV.

[3] = Mouse liver microsomal stability; assay type: in vitro ADME; details: 60-minute incubation at 37° C. with mouse liver microsomes
Description: as §1

Sequence of TRIP8b-HCN1c40 (Q8IYB4 265-626): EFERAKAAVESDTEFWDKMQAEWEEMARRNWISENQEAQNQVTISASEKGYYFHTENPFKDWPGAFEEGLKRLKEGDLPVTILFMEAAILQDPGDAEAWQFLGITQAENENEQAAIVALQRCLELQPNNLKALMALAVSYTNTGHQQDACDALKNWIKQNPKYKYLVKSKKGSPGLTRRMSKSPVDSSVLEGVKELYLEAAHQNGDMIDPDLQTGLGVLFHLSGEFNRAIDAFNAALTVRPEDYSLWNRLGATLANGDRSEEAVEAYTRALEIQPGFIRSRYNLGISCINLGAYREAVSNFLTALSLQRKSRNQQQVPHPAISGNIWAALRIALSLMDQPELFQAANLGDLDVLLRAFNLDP
Sequence of TRIP8b and HCN1 (Q8IYB4 other isoform, or with tags, fused parts or gaps, species assumed): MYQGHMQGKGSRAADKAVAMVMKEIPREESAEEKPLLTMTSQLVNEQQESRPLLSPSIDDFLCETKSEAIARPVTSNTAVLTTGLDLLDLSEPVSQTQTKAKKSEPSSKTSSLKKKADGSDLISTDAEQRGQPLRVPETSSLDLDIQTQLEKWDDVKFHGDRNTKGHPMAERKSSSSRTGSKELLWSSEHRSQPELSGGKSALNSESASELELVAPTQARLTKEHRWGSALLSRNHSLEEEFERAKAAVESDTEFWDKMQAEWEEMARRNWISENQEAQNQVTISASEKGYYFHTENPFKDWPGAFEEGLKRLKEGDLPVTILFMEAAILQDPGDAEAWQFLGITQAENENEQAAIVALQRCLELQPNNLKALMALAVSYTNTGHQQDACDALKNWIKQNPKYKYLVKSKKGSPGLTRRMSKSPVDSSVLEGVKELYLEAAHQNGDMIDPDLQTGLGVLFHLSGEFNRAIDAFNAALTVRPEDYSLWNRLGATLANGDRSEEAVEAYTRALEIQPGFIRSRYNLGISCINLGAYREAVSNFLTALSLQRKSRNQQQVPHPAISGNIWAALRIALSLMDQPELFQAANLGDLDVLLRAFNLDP

CN1CCN(Cc2cc(-c3ccc(F)cc3)ccc2OCC(=O)NCc2ccc(Cl)cc2)CC1.Cl [NUCC-0200590 HCl salt, N-(4-chlorobenzyl)-2-((4′-fluoro-3-((4-methylpiperazin-1-yl)methyl)-[1,1′-biphenyl]-4-yl)oxy)acetamide hydrochloride]
solubility thermodynamic at 16 h ([1]; aqueous buffer, thermodynamic from solid): 252 µM | disruption of TRIP8b-HCN1 interaction (NanoBiT luminescence) (TRIP8b and HCN1): disrupts the interaction between fragments of TRIP8b and HCN1 in live cells

CN1CCN(Cc2cc(-c3ccc(F)cc3)ccc2OCC(=O)NCc2ccc(Cl)cc2)CC1 [NUCC-0200590, N-(4-chlorobenzyl)-2-((4′-fluoro-3-((4-methylpiperazin-1-yl)methyl)-[1,1′-biphenyl]-4-yl)oxy)acetamide]
viability as percentage of 0 μM control (HEK293T cells): main effect of concentration | IC50 (TRIP8b-HCN1c40; activity ranges, read-out: TRIP8b-HCN1c40 Alphascreen IC50 activity): 5 to 10 µM | IC50 (TRIP8b-HCN1c40; most potent hit compound of in silico screen, read-out: IC50 value in the AlphaScreen assay): 19.9 ± 0.9 µM | IC50 (TRIP8b-HCN1c40; read-out: TRIP8b-HCN1c40 Alphascreen IC50): 5.4 µM | sag ratio ([2]; Trip8b+/+ mice): 1.14±0.01 | sag ratio ([2]; Trip8b−/− mice): 1.05±0.02 | thermodynamic solubility [1]: completely insoluble | parent compound remained [3]: 3.7%
